Data: ChEMBL document CHEMBL1201862, “PubChem BioAssay data set” (2004)
The source made the active and inactive calls.

How the values were obtained:
[1] = hepatoma cell viability loss – CellTiter-Glo luminescence, dry powder, set 20, cytotoxicity control, dose response (AID 1117291); format: functional, cell-based; details: HepG2
[2] = lung carcinoma cell viability loss – CellTiter-Glo luminescence, dry powder, set 18, cytotoxicity control, dose response (AID 1117290); format: functional, cell-based; details: A549
[3] = Luminescence-based cell-based high throughput dose response assay to identify activators of the DAF-12 from the parasite S. stercoralis (ssDAF-12).; format: functional
[4] = biological target: T1, Oxysterols receptor LXR-beta (Homo sapiens, UniProt P55055); assay: LXR agonists, Gal4 luciferase reporter, dose response, counter-screen for ssDAF-12 agonist project, cell-based, luminescence, HEK293, S. stercoralis campaign (AID 720737); format: functional; details: read-out: IC50 (the source's name)
T1 sequence (P55055 whole entry): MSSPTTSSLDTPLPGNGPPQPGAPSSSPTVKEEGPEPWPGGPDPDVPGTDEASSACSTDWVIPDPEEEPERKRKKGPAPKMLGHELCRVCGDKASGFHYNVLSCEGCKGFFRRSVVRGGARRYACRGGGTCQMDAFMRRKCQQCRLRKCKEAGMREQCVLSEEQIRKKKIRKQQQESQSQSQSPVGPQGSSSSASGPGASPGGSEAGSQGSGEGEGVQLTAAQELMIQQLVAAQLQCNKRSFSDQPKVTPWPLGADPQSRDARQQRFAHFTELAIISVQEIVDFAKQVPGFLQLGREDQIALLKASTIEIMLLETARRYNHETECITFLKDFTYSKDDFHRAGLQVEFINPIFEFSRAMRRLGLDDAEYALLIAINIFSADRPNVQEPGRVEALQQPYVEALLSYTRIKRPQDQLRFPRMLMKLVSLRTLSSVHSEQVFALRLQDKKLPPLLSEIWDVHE

[5] = reduction of Shn3 3'UTR-driven luciferase in osteoblasts – cell-based, Clone20 osteoblasts, firefly luciferase, cherry-picked, dose response (AID 624132); format: functional;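 note: firefly luciferase luminescence from reporter carrying the Shn3 3'UTR in osteoblasts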
[6] = loss of viability in HepG2 cells – cell-based, CellTiter-Glo, cherry-picked, cytotoxicity control for Shn3 inhibitor project, dose response (AID 624134); format: functional
[7] = biological target: T2, DNA repair protein RAD52 homolog (Homo sapiens, UniProt P43351); format: functional, biochemical
T2 sequence (P43351 whole entry): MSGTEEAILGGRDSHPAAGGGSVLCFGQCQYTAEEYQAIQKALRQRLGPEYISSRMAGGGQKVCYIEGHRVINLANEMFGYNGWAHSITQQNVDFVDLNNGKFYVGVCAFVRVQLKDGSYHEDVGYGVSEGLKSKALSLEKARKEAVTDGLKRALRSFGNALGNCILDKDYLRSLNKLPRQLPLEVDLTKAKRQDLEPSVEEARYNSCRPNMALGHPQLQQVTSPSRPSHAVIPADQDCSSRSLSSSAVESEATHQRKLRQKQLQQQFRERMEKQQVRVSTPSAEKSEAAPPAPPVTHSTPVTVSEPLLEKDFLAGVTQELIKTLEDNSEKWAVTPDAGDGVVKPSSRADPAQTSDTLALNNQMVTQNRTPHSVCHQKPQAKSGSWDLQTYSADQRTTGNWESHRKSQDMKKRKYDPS

[8] = biological target: E3 ubiquitin-protein ligase UHRF1 (Homo sapiens, UniProt Q96T88); assay: Counterscreen for inhibitors of 5-meCpG-binding domain protein 2 (MBD2): TRFRET-based biochemical high throughput dose response assay to identify inhibitors of binding of ubiquitin-like with PHD and ring finger domains 1 (UHRF1) to methylated oligonucleotide.
HEK293 [9] = assay: cells; details: Homo sapiens
HEK293 [10] = assay: cells; details: Homo sapiens; remark: listed apart in the source
[11] = biological target: T3, Endoplasmic reticulum aminopeptidase 1 (Homo sapiens, UniProt Q9NZ08); assay: inhibition of human ERAP1 enzyme activity – biochemical, cherry-pick, set 2, plate reader, dose response (AID 743314)
[12] = biological target: T3, Endoplasmic reticulum aminopeptidase 1; assay: blocking ERAP1 cleavage of leucine-AMC substrate – biochemical, fluorescence plate reader, dry powder, dose response (AID 1117292); format: functional
[13] = IC50 of insulin release inhibition, rat insulinoma INS-1E line, 5 mM glucose, cell-based (AID 1117331); format: functional

T3 sequence (Q9NZ08 whole entry): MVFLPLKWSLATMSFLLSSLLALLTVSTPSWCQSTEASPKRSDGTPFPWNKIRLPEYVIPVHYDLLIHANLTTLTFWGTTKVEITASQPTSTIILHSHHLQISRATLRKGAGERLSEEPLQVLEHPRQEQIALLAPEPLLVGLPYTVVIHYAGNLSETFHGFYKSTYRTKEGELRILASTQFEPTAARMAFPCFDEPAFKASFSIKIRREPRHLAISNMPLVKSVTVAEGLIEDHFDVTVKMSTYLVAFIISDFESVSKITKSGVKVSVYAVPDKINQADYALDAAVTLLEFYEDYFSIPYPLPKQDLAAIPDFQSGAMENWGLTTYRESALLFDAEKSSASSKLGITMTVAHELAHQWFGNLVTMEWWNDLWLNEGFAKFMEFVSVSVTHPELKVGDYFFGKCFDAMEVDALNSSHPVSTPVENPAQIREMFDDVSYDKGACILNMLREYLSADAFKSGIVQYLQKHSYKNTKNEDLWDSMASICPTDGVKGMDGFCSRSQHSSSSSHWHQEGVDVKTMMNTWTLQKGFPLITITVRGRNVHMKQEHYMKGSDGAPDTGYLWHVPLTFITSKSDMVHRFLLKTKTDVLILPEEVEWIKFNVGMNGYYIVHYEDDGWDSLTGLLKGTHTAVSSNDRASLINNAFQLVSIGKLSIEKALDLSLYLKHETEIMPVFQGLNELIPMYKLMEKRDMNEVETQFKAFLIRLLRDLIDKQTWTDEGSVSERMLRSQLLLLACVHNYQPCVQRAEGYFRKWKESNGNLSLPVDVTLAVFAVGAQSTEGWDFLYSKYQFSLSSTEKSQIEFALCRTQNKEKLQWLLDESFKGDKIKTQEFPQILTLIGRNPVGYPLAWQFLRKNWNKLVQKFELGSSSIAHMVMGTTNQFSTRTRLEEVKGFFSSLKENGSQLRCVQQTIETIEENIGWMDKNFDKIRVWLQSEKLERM
Sequence of E3 ubiquitin-protein ligase UHRF1 (Q96T88 whole entry, the tested form may be a part): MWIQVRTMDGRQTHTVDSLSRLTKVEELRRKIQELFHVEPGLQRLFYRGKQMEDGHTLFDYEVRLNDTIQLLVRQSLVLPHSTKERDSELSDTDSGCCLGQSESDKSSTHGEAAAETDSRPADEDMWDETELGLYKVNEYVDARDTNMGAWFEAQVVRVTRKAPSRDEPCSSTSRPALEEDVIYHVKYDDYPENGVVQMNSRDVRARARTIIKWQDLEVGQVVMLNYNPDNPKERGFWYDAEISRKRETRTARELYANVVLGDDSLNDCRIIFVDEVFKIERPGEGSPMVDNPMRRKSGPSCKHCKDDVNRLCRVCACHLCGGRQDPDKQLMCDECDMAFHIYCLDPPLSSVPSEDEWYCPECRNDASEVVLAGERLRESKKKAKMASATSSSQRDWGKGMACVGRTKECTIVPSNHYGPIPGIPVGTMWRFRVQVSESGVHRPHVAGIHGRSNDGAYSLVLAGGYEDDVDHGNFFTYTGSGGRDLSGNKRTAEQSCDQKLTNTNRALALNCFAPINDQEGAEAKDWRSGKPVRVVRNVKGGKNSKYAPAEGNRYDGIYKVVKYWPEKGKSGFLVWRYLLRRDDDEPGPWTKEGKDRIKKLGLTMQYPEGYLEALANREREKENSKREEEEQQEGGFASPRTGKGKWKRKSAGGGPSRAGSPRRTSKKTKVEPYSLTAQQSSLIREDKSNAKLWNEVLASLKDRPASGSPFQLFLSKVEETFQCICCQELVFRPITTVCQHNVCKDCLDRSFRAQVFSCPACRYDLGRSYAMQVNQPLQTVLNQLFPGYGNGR

For COc1ccc(S(=O)(=O)Nc2cc(C(F)(F)F)ccc2N2CCCCC2)cc1, the AC50 [1] was 33.8 µM (active) and the AC50 [2] was 46 µM (active).

For C(=N\Nc1nc2ccccc2s1)/c1cccs1, the IC50 [3] was > 67.5 µM (inactive) and the EC50 [4] was > 67.5 µM (inactive).

With COc1ccc(C(=O)NCCN(C)C)c2nc3ccccc3cc12 the AC50 [5] was 5.78 µM (active), the AC50 [6] was 5.16 µM (active) and the AC50 [7] was 1.04 µM (active). The IC50 [8] was 9.07 µM (active), the EC50 (HEK293 [9]) was > 59.5 µM (inactive) and the EC50 (HEK293 [10]) was > 59.5 µM (inactive).

For CC(=O)N1CCN(C(=O)C2(NC(=O)Nc3ccc(C)cc3)CCCCC2)CC1, the AC50 [11] was 8.21 µM (active) and the AC50 [12] was 24.8 µM (active).

For Cc1cc(-n2nc3ccc(Cl)cc3n2)c(O)c(C(C)(C)C)c1 [BUMETRIZOLE], the IC50 [13] was > 33.3 µM (inactive).
